For 34 compounds, IC50 results are on record in BindingDB's records for patent US20250313563 (The Broad Institute, 2025).

Where “and” joins values, the source holds several entries; their conditions need not be identical. Equal entries are not always repeated.

Assay [1] has as its target Glycogen synthase kinase-3 alpha (Homo sapiens, UniProt P49840). The assay is described as follows: TR-FRET Assay. A digest of the protocol: (§1)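 Enzyme and test compound were first incubated together for 30 minutes in assay buffer. The kinase reaction followed and was stopped with EDTA. The pSer641 signal was read by time-resolved FRET.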
In assay [2] the target is Glycogen synthase kinase-3 beta (Homo sapiens, UniProt P49841). The assay is described as follows: TR-FRET Assay. A digest of the protocol:
as §1
A general note: Time-resolved FRET reads energy transfer from a long-lived donor to a nearby acceptor.

Glycogen synthase kinase-3 alpha, sequence (P49840 whole entry): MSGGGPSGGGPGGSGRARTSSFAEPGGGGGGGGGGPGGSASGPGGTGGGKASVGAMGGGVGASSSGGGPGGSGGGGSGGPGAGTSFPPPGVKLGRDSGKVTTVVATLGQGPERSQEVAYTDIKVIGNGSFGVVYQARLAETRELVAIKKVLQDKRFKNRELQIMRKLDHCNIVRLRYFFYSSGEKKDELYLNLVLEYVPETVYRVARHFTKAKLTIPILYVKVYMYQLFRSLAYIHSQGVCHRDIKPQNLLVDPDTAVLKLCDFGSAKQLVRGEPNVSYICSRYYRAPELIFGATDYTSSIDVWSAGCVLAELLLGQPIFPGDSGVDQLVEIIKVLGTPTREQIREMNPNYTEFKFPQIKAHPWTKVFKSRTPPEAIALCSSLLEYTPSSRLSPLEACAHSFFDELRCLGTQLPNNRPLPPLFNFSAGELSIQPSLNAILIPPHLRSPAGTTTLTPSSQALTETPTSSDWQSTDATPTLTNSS
Glycogen synthase kinase-3 beta, sequence (P49841 whole entry): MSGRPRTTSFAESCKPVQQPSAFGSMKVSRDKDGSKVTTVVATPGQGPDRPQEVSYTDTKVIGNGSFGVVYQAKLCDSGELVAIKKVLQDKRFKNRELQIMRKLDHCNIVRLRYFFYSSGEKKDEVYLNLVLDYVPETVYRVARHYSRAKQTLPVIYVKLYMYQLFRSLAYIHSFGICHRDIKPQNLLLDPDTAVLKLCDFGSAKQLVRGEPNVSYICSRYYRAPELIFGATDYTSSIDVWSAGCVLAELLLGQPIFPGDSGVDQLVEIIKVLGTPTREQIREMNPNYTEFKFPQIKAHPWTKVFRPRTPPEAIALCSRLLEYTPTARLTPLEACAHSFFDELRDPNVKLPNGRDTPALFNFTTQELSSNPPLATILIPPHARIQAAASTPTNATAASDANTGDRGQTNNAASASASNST

As to `CC[C@]1(c2cccc(C(C)C)c2)C2=C(CC(C)(C)NC2=O)NC2N=NC(C)=C21` (stereo partly drawn) [US20250313563, Compound 949649], the IC50 in assay [1] was < 100 nM and 100 to 1000 nM; in assay [2], < 100 nM and 1000 to 5000 nM.
On to `CCC1(c2cccc(-c3cn(C)nc3C)c2)C2=CN=NC2NC2=C1C(=O)NC1(CCS(=O)(=O)CC1)C2` (stereo not drawn) [US20250313563, Compound 950813], for which the IC50 is < 100 nM in assay [1] and 100 to 1000 nM in assay [2].
On to `CCC1(c2cccc(N3CCCC3)c2)C2=C(CC(C)(C)NC2=O)NC2N=NC(C(F)(F)F)=C21` (stereo not drawn) [US20250313563, Compound 947860], for which the IC50 is < 100 nM in assay [1]; < 100 nM and 100 to 1000 nM in assay [2].
Turning to `CCC1(c2cccc(COC)c2)C2=CN=NC2NC2=C1C(=O)CC(C)(C)C2` (stereo not drawn) [US20250313563, Compound 801323], the IC50 in assay [1] was < 100 nM; in assay [2], 100 to 1000 nM.
Turning to `CC[C@]1(c2cccc(C(F)(F)F)c2)C2=CN=NC2NC2=C1C(=O)NC(C)(C)C2` (stereo partly drawn) [US20250313563, Compound 913004], the IC50 in assay [1] and in assay [2] was > 5000 nM throughout.
In the case of `CC[C@@]1(c2cccc(-c3ccncc3F)c2)C2=C(CC(C)(C)NC2=O)NC2N=NC(C)=C21` (stereo partly drawn) [US20250313563, Compound 947821], the IC50 in assay [1] and in assay [2] was < 100 nM each time.
Consider `CC(=O)N1CC2(C1)C[C@]1(CO2)C2=C(N=NC2)NC2=C1C(=O)CC(C)(C)C2` [US20250313563, Compound 926872], for which the IC50 in assay [1] and in assay [2] was 100 to 1000 nM in each case.
For the compound `CC1(C)CC(=O)C2=C(C1)NC1=C(CN=N1)C21CCN(S(=O)(=O)c2cnn(C(C)(C)C)c2)CC1` [US20250313563, Compound 945677], the figures for the IC50 in assay [1] and in assay [2] were < 100 nM and 100 to 1000 nM, respectively.
The like results for `CC1(C)CC(=O)C2=C(C1)NC1=C(CN=N1)C21COC2(CN(C(=O)OC(C)(C)C)C2)C1` (stereo not drawn) [US20250313563, Compound 911083] were, in that order, 100 to 1000 nM and 1000 to 5000 nM.
`CCC1(c2cccc(N3CCNCC3)c2)C2=CN=NC2NC2=C1C(=O)CC(C)(C)C2` (stereo not drawn) [US20250313563, Compound 806604]: the IC50 is > 1670 nM in assay [1] and > 5000 nM in assay [2].
For `CCC1(c2cccc(-c3ccnc(C)c3C)c2)C2=C(CC(C)(C)NC2=O)NC2N=NC(C)=C21` (stereo not drawn) [US20250313563, Compound 947399], the IC50 in assay [1] fell in the range of 100 to 1000 nM; in assay [2], 1000 to 5000 nM.
Take `CC1(C)CC(=O)C2=C(C1)NC1=C(CN=N1)[C@]21COC2(CCC2)C1` [US20250313563, Compound 917128]: the IC50 in assay [1] and in assay [2] was 100 to 1000 nM in each case.
Take `CC[C@]1(c2cccc(-c3ccnc(C)c3)c2)C2=C(CC(C)(C)NC2=O)NC2N=NC(C(F)F)=C21` (stereo partly drawn) [US20250313563, Compound 950162]: the IC50 in assay [1] and in assay [2] was 100 to 1000 nM throughout.
`CCN(C(C)=O)c1cccc([C@]2(CC)C3=CN=NC3NC3=C2C(=O)CC(C)(C)C3)c1` (stereo partly drawn) [US20250313563, Compound 909215]: the IC50 in assay [1] fell in the range of 100 to 1000 nM; in assay [2], 1000 to 5000 nM.
In the case of `Cc1cccc(S(=O)(=O)N2CC[C@@]3(C2)C2=C(N=NC2)NC2=C3C(=O)CC(C)(C)C2)c1` [US20250313563, Compound 943489], the IC50 in assay [1] and in assay [2] was < 100 nM throughout.
For `CC1(C)CC(=O)C2=C(C1)NC1=C(CN=N1)C21COCCOC1` [US20250313563, Compound 912094], the values for the IC50 in assay [1] and in assay [2] were 1000 to 5000 nM and > 5000 nM, respectively.
As for `CC1(C)CC(=O)C2=C(C1)NC1=C(CN=N1)C21CN(S(=O)(=O)c2cccnc2)C1` [US20250313563, Compound 913265], the IC50 in assay [1] and in assay [2] was > 5000 nM each time.
`CC[C@@]1(c2cccc(S(=O)(=O)C3CC3)c2)C2=C(CC(C)(C)NC2=O)NC2N=NC(C(F)(F)F)=C21` (stereo partly drawn) [US20250313563, Compound 948776]: the IC50 in assay [1] and in assay [2] was 100 to 1000 nM in each case.
With `CCC1(c2cccc(-c3cc(OC)ncc3F)c2)C2=CN=NC2NC2=C1C(=O)CC(C)(C)C2` (stereo not drawn) [US20250313563, Compound 932630], the IC50 in assay [1] and in assay [2] was < 100 nM throughout.
As for `CC[C@@]1(c2cccc(S(=O)(=O)C3CC3)c2)C2=CN=NC2NC2=C1C(=O)NC(C)(C)C2` (stereo partly drawn) [US20250313563, Compound 945999], the IC50 in assay [1] and in assay [2] was < 100 nM in each case.
For the compound `C[C@@H]1CCC[C@@]2(C1)C1=C(N=NC1)NC1=C2C(=O)CC(C)(C)C1` [US20250313563, Compound 874532], the IC50 in assay [1] and in assay [2] was < 100 nM in each case.
As to `CC[C@]1(c2cccc(-c3ccnc(C)c3)c2)C2=C(CC(C)(C)NC2=O)NC2N=NC(Cl)=C21` (stereo partly drawn) [US20250313563, Compound 949421], the IC50 is 100 to 1000 nM in assay [1] and > 5000 nM in assay [2].
In the same order, the values of `CC1(C)CC(=O)C2=C(C1)NC1=C(CN=N1)C21COC2(CN(C(=O)C3(F)CC3)C2)C1` (stereo not drawn) [US20250313563, Compound 947487] are < 100 nM and < 100 nM.
For the compound `CC[C@]1(c2cccc(C(C)C)c2)C2=C(CC(C)(C)NC2=O)NC2N=NC(C(F)(F)F)=C21` (stereo partly drawn) [US20250313563, Compound 950493], the IC50 in assay [1] and in assay [2] was 100 to 1000 nM throughout.
On to `CC[C@@]1(c2cccc(-c3ccncc3)c2)C2=CN=NC2NC2=C1C(=O)CC(C)(C)C2` (stereo partly drawn) [US20250313563, Compound 801413], for which the figures for the IC50 in assay [1] and in assay [2] were 100 to 1000 nM and 1000 to 5000 nM, respectively.
The like results for `CC[C@]1(c2cccc(S(=O)(=O)CC3CC3)c2)C2=C(CC(C)(C)NC2=O)NC2N=NC(C(F)(F)F)=C21` (stereo partly drawn) [US20250313563, Compound 949175] were, in that order, < 100 nM and < 100 nM.
`CCC1(c2cccc(S(C)(=O)=O)c2)C2=CN=NC2NC2=C1C(=O)CC(C)(C)C2` (stereo not drawn) [US20250313563, Compound 819561]: the IC50 in assay [1] and in assay [2] was < 100 nM in each case.
Regarding `CC1CC(C(=O)N2CC3(C2)C[C@]2(CO3)C3=C(N=NC3)NC3=C2C(=O)CC(C)(C)C3)C1` (stereo partly drawn) [US20250313563, Compound 947732], the IC50 in assay [1] is 100 to 1000 nM; in assay [2], 1000 to 5000 nM.
For `CC[C@]1(c2cccc(-c3ccnn3C)c2)C2=CN=NC2NC2=C1C(=O)N[C@@]1(CCOC1)C2` (stereo partly drawn) [US20250313563, Compound 948017], the IC50 in assay [1] and in assay [2] was < 100 nM each time.
As for `Cn1ccc(CN2CC3(C2)C2=C(N=NC2)NC2=C3C(=O)CC(C)(C)C2)n1` [US20250313563, Compound 932652], the IC50 in assay [1] and in assay [2] was > 5000 nM each time.
Consider `COC[C@H]1C[C@@]2(C1)C1=C(N=NC1)NC1=C2C(=O)CC(C)(C)C1` [US20250313563, Compound 912173], for which the IC50 in assay [1] and in assay [2] was 100 to 1000 nM in each case.
Regarding `CC[C@@]1(c2cccc(-c3ccn(C)n3)c2)C2=C(CC(C)(C)CC2=O)NC2N=NC(C)=C21` (stereo partly drawn) [US20250313563, Compound 913030], the IC50 in assay [1] was < 100 nM and 100 to 1000 nM; in assay [2] it was < 100 nM and 100 to 1000 nM.
For `CC[C@@]1(c2cccc(-c3ccncc3F)c2)C2=C(CC(C)(C)NC2=O)NC2N=NC(C(F)(F)F)=C21` (stereo partly drawn) [US20250313563, Compound 948777], the IC50 in assay [1] and in assay [2] was < 100 nM in each case.
As for `CC[C@]1(c2cccc(C(F)(F)F)c2)C2=CN=NC2NC2=C1C(=O)NC[C@H]2C` (stereo partly drawn) [US20250313563, Compound 945383], the IC50 in assay [1] is < 100 nM; in assay [2] it was 100 to 1000 nM.

By IC50 is commonly meant the concentration at which inhibition is half-maximal. A high value points to weaker potency in that assay.
